In patent publication US8211633B2, “Viral variants with altered susceptibility to nucleoside analogs and uses thereof” (priority 2002, dated 2012):

What was measured:
WHV = conditions: chronically-infected woodchucks; cited from earlier work
HBV [1] = conditions: four week dose-escalation trial; highest dose tested (1 mg/daily); cited from earlier work
HBV [2] = test: Serum HBV DNA level in treated patients (Digene Hybrid Capture II capture hybridization assay); format: in vivo, human; conditions: for HBV DNA: patient A, on LMV
From the text: (§1) Patient A is a person with chronic hepatitis B presented on Day 0 (9 Jul. 1999) with raised serum HBV DNA levels (>2000 pg/ml) and was commenced on LMV treatment immediately (FIG. 2). The patient A was HBsAg positive and anti-HBe positive. Following the initiation of LMV treatment the HBV DNA levels fell to 8 pg/ml over 54 days of therapy. […] By Day 241 the serum ALT peaked at 741 IU/l. The HBV DNA was sequenced and LMV resistant virus was detected. […] The patient was started on open label ETV plus LMV.
Patient B is a liver transplant patient. […] The patient was treated with LMV prior to ETV. The patient is currently on ETV treatment. […] The HBV DNA from this sample was further characterized by sequencing.
Hepatitis B surface antigen (HBsAg), hepatitis B e antigen (HBeAg), anti-HBe and hepatitis B core antigen (HBcAg) specific IgG and IgM were measured using commercially available immunoassays (Abbott Laboratories, North Chicago, Ill., USA). Hepatitis B viral DNA levels were measured using a capture hybridization assay according to the manufacturer's directions (Digene Hybrid Capture II, Digene Diagnostics Inc., Beltsville, Md.). The manufacturers stated cut-off for detecting HBV viremia in clinical specimens was 0.7×10^6 copies/ml or 2.5 pg/ml, [Hendricks D A, et al., Am J Clin Pathol 104: 537-46, 1995].

[3] = tested on: HBV encoding rtI169T+rtV173L+rtL180M+rtM204V; test: Antiviral testing with recombinant HBV/baculovirus in HepG2 cells, replicative intermediates by quantitative real-time PCR, quadruple mutant; format: cell-based, hepatitis B virus; conditions: quadruple mutant rtI169T+rtV173L+rtL180M+rtM204V vs wild type; especially at concentrations up to 0.5 μM ETV; FIG. 11
Procedure: The sensitivity/resistance profile of HBV mutants to entecavir was examined in vitro using recombinant HBV/baculovirus. The procedure for analysing the resistance profile is outlined in the following Examples 7-14.
Sf21 insect cells were maintained in supplemented Grace's insect medium further supplemented with 10% v/v heat-inactivated fetal bovine serum (Gibco BRL, Gaithersburg, Md.) in humidified incubator at 28 C with CO2. HepG2 cells were maintained in minimal essential medium supplemented with 10% v/v heat-inactivated fetal bovine serum (MEM-FBS). HepG2 cells were grown in humidified 37° C. incubators at 5% v/v CO2.
The recombinant HBV/baculovirus system used for antiviral testing has been previously described (Delaney et al., Antimicrob Agents Chemother 45(6): 1705-[…], 2001). […] The nucleotide sequence of the plasmid and the point mutations generated by site directed mutagenesis were confirmed by sequencing using the ABI Prism Big Dye Terminator Cycle Sequencing Ready Reaction Kit according to the manufacturer's specifications (Perkin Elmer, Cetus Norwalk, Conn.). […]
HepG2 cells were seeded at approximately 20-40% confluency and then were grown for 16-24 hours before infection. On the day of infection, triplicate plates of cells were trypsinized, and viable cell number was determined with a hemocytometer using Trypan blue exclusion. […]

[4] = Serum ALT level in treated patient A; format: in vivo, human; conditions: on LMV
From the text: as §1

[5] = day 382 post LMV treatment, day blinded ETV vs LMV phase started

C=C1[C@H](CO)[C@@H](O)C[C@@H]1n1cnc2c(=O)[nH]c(N)nc21 [ETV]
efficacy against WHV (WHV): demonstrated efficacy
mean reduction in viremia (HBV [1]): 2.5 log10
HBV DNA levels (HBV [2]; patient B (liver transplant, LMV before ETV), during ETV treatment): less than 5 pg/ml
HBV DNA levels (HBV [2]; patient B, at 532 days ETV treatment (3857 days post transplant), rise): 993 pg/mL
sensitivity to ETV (HBV DNA replicative intermediates by quantitative PCR) [3]: reduced sensitivity to ETV

Nc1ccn([C@@H]2CS[C@H](CO)O2)c(=O)n1 [LMV, (−)-β-2′-deoxy-3′-thiacytidine]
HBV DNA (HBV [2]; day 54 post LMV treatment): 8 pg/mL
HBV DNA (HBV [2]; day 173 post LMV treatment): 837 pg/mL
HBV DNA (HBV [2]; day 199 post LMV treatment): 1826 pg/mL
HBV DNA (HBV [2]; day 241 post LMV treatment): 930 pg/mL
HBV DNA (HBV [2]; day 283 post LMV treatment): 1631 pg/mL
HBV DNA (HBV [2]; day 312 post LMV treatment): 1539 pg/mL
HBV DNA (HBV [2]; day 348 post LMV treatment): 1605 pg/mL
HBV DNA (HBV [2]; [5]): 1303 pg/mL
ALT ([4]; day 54 post LMV treatment): 510 IU/L
ALT ([4]; day 87 post LMV treatment): 211 IU/L
ALT ([4]; day 115 post LMV treatment): 106 IU/L
ALT ([4]; day 173 post LMV treatment): 186 IU/L
ALT ([4]; day 199 post LMV treatment): 233 IU/L
ALT ([4]; day 241 post LMV treatment): 741 IU/L
ALT ([4]; day 283 post LMV treatment): 334 IU/L
ALT ([4]; day 312 post LMV treatment): 238 IU/L
ALT ([4]; day 348 post LMV treatment): 349 IU/L
ALT [4, 5]: 317 IU/L
